Measurements: patent US9850283B2, “Macrocyclic inhibitors of the PD-1/PD-L1 and CD80(B7-1)/PD-L1 protein/protein interactions” (BRISTOL-MYERS SQUIBB COMPANY, priority 2013, dated 2017)
Like-named read-outs stand apart in the source and are kept apart here. Positions of bridges follow the written chain, without caps; N, C: chain ends. Non-standard residues stand in square brackets, D forms with d. Residues, ends and D or L forms follow the SMILES beside them. ξ: configuration not given here. Phe(3,4,5-F3) = N[C@@H](Cc1cc(F)c(F)c(F)c1)C(=O)O; Phe(3,4-(OMe)2) = COc1ccc(C[C@H](N)C(=O)O)cc1OC; Phe(4-CONH2) = NC(=O)c1ccc(C[C@H](N)C(=O)O)cc1; Phe(4-COOH) = N[C@@H](Cc1ccc(C(=O)O)cc1)C(=O)O; Pro(trans-4-F) = O=C(O)[C@@H]1C[C@@H](F)CN1; Pro(4R-NH2) = N[C@H]1CN[C@H](C(=O)O)C1; d(cisHyp) = O=C(O)[C@H]1C[C@@H](O)CN1; Phe(2-F) = N[C@@H](Cc1ccccc1F)C(=O)O; Hyp = O=C(O)[C@@H]1C[C@@H](O)CN1; NMeF = CN[C@@H](Cc1ccccc1)C(=O)O; tBuAla = CC(C)(C)C[C@H](N)C(=O)O; NMeNle = CCCC[C@H](NC)C(=O)O; dPip = O=C(O)[C@H]1CCCCN1; NMeA = CN[C@@H](C)C(=O)O; ξC = NC(CS)C(=O)O; Sar = CNCC(=O)O

How the values were obtained:
Human PD-L1/PD-1 = target: T1, Human PD-L1/PD-1 (Homo sapiens, UniProt Q9NZQ7); test: HTRF PD-1-Ig/PD-L1-His binding assay (human PD-L1)
T1 construct: made in house; host or cells: HEK293T
Outline: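 Ig- and His-fused extracellular PD-1/PD-L1 binding in BSA/Tween-20 dPBS. HTRF with Eu anti-Ig (1 nM final) and APC anti-His (20 nM final).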

[1] = target: T2, LK35.2-hPD-L1 cells / PE-labeled PD-1-Ig (Homo sapiens, UniProt Q9NZQ7); test: LK35.2-hPD-L1 cell binding high-content screening assay; type: cell-based
T2 construct: expressed in transfected cells; host or cells: LK35.2 mouse B cell line
Outline: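 Fluorescent PD-1-Ig binding to PD-L1-expressing LK35.2 cells, imaged after washing. Conditions: 1 nM PE-PD-1-Ig, 37 °C, 1 h, RPMI with 10% fetal calf serum.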

[2] = cluster symbol, read-out: HTRF IC50 cluster
[3] = cell binding assay, cell line not given, cluster symbol, read-out: CBA IC50 cluster
[4] = cluster symbol, cell line of CBA not given (LK35.2-hPD-L1 or 293T-hPD-L1), read-out: CBA IC50 cluster

T2 sequence (Q9NZQ7 19-290): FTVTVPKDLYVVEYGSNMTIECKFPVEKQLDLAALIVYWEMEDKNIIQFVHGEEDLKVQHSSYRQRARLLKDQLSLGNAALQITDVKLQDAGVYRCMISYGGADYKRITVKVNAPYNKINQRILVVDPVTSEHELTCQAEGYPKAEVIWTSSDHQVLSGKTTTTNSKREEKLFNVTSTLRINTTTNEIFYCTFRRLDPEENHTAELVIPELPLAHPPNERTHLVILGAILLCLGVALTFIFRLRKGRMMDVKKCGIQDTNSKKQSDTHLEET
T1 sequence (Q9NZQ7 with tags, fused parts or gaps): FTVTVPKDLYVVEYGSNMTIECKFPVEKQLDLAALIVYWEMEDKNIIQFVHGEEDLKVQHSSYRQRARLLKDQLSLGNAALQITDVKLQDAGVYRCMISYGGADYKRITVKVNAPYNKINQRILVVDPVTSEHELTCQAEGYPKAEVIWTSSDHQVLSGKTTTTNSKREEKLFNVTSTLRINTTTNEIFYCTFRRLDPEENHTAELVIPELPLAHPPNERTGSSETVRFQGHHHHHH

Structure (SMILES) | IC50 (Human PD-L1/PD-1; [2]) | IC50 [1, 3] | IC50 [1, 4] | IC50 (Human PD-L1/PD-1; read-out: HTRF IC50 value) | IC50 ([1]; cell line of CBA not given (LK35.2-hPD-L1 or 293T-hPD-L1), read-out: CBA IC50 value)
CCCC[C@H]1C(=O)N(C)[C@@H](CCCC)C(=O)N[C@@H](CCCNC(=N)N)C(=O)N[C@H](C(=O)NCC(N)=O)CSCC(=O)N[C@@H](Cc2ccccc2)C(=O)N(C)[C@@H](C)C(=O)N[C@@H](CC(N)=O)C(=O)N2C[C@H](F)C[C@H]2C(=O)N[C@@H](Cc2cnc[nH]2)C(=O)N[C@@H](CC(C)C)C(=O)N(C)CC(=O)N[C@@H](Cc2c[nH]c3ccccc23)C(=O)N[C@@H](CO)C(=O)N[C@@H](Cc2c[nH]c3ccccc23)C(=O)N1C [Example 5012] ({CH2CO}-F[NMeA]N[Pro(trans-4-F)]HL[Sar]WSW[NMeNle][NMeNle]RCG-NH2; thioether N-14) | > 30.5 nM | > 74.3 nM | – | – | –
CCCC[C@H]1C(=O)N(C)[C@@H](CCCC)C(=O)N[C@@H](CCCNC(=N)N)C(=O)NC(C(=O)NCC(N)=O)CSCC(=O)N[C@@H](Cc2ccc(O)cc2)C(=O)N(C)[C@@H](C)C(=O)N[C@@H](CC(N)=O)C(=O)N2CCC[C@H]2C(=O)N[C@@H](Cc2c[nH]cn2)C(=O)NCC(=O)N[C@@H](CC(C)C)C(=O)N2CCC[C@H]2C(=O)N[C@@H](Cc2c[nH]c3ccccc23)C(=O)N[C@@H](CO)C(=O)N[C@@H](Cc2c[nH]c3ccccc23)C(=O)N1C (some centres unmarked) [Example 10516] ({CH2CO}-Y[NMeA]NPHGLPWSW[NMeNle][NMeNle]R[ξC]G-NH2; thioether N-15) | > 30.5 nM | > 74.3 nM | – | – | –
CCCC[C@H]1C(=O)N2C[C@H](O)C[C@@H]2C(=O)N2C[C@H](N)C[C@H]2C(=O)N[C@@H](C(C)C)C(=O)N(C)[C@@H](Cc2ccccc2)C(=O)N[C@@H](Cc2ccc(O)cc2)C(=O)N2CCCC[C@@H]2C(=O)N[C@@H](Cc2c[nH]c3ccccc23)C(=O)N[C@@H](Cc2ccc(O)cc2)C(=O)N[C@@H](CC(C)C)C(=O)N[C@H](C(=O)NCC(N)=O)CSCC(=O)N[C@@H](Cc2cc(F)c(F)c(F)c2)C(=O)N(C)[C@@H](Cc2ccccc2)C(=O)N1C [Example 3196] ({CH2CO}-[Phe(3,4,5-F3)][NMeF][NMeNle][d(cisHyp)][Pro(4R-NH2)]V[NMeF]Y[dPip]WYLCG-NH2; thioether N-13) | 0.385 to 6.74 nM | – | 0.158 to 4.71 nM | – | –
CCCC[C@H]1C(=O)N(C)CC(=O)N[C@@H](CC(=O)O)C(=O)N[C@@H](C(C)C)C(=O)N(C)[C@@H](Cc2ccccc2)C(=O)N[C@@H](Cc2ccc(O)cc2)C(=O)N(C)CC(=O)N[C@@H](Cc2c[nH]c3ccccc23)C(=O)N[C@@H](Cc2ccc(O)cc2)C(=O)N[C@@H](CC(C)C)C(=O)N[C@H](C(=O)NCC(N)=O)CSCC(=O)N[C@@H](Cc2ccccc2F)C(=O)N(C)[C@@H](Cc2ccccc2)C(=O)N1C [Example 3568] ({CH2CO}-[Phe(2-F)][NMeF][NMeNle][Sar]DV[NMeF]Y[Sar]WYLCG-NH2; thioether N-13) | > 30.5 nM | 4.78 to 72.9 nM | – | – | –
CCCC[C@H]1C(=O)N(C)[C@@H](CCCC)C(=O)N[C@@H](CCCNC(=N)N)C(=O)N[C@H](C(=O)NCC(N)=O)CSCC(=O)N[C@@H](Cc2ccc(C(N)=O)cc2)C(=O)N(C)[C@@H](C)C(=O)N[C@@H](CC(N)=O)C(=O)N2CCC[C@H]2C(=O)N[C@@H](Cc2cnc[nH]2)C(=O)N[C@@H](CC(C)C)C(=O)N2C[C@H](O)C[C@H]2C(=O)N[C@@H](Cc2c[nH]c3ccccc23)C(=O)N[C@@H](CO)C(=O)N[C@@H](Cc2c[nH]c3ccccc23)C(=O)N1C [Example 7050] ({CH2CO}-[Phe(4-CONH2)][NMeA]NPHL[Hyp]WSW[NMeNle][NMeNle]RCG-NH2; thioether N-14) | 0.385 to 6.74 nM | 4.78 to 72.9 nM | – | – | –
CCCC[C@H]1C(=O)N(C)CC(=O)N[C@@H](CC(=O)O)C(=O)N[C@@H](C(C)C)C(=O)N(C)[C@@H](Cc2ccccc2)C(=O)N[C@@H](Cc2ccc(O)cc2)C(=O)N(C)CC(=O)N[C@@H](Cc2c[nH]c3ccccc23)C(=O)N[C@@H](Cc2ccc(O)cc2)C(=O)N[C@@H](CC(C)C)C(=O)N[C@H](C(=O)NCC(N)=O)CSCC(=O)N[C@@H](Cc2ccc(OC)c(OC)c2)C(=O)N(C)[C@@H](Cc2ccccc2)C(=O)N1C [Example 3102] ({CH2CO}-[Phe(3,4-(OMe)2)][NMeF][NMeNle][Sar]DV[NMeF]Y[Sar]WYLCG-NH2; thioether N-13) | > 30.5 nM | – | > 74.3 nM | – | –
CCCC[C@H]1C(=O)N(C)[C@@H](CCCC)C(=O)N[C@@H](CCCNC(=N)N)C(=O)N[C@H](C(=O)NCC(N)=O)CSCC(=O)N[C@@H](Cc2ccc(C(=O)O)cc2)C(=O)N(C)[C@@H](C)C(=O)N[C@@H](CC(N)=O)C(=O)N2CCC[C@H]2C(=O)N[C@@H](Cc2cnc[nH]2)C(=O)N[C@@H](CC(C)C)C(=O)N(C)CC(=O)N[C@@H](Cc2c[nH]c3ccccc23)C(=O)N[C@@H](CO)C(=O)N[C@@H](Cc2c[nH]c3ccccc23)C(=O)N1C [Example 1095] ({CH2CO}-[Phe(4-COOH)][NMeA]NPHL[Sar]WSW[NMeNle][NMeNle]RCG-NH2; thioether N-14) | > 30.5 nM | – | > 74.3 nM | – | –
CCCC[C@H]1C(=O)N(C)CC(=O)N[C@@H](CC(=O)O)C(=O)N[C@@H](CO)C(=O)N(C)[C@@H](Cc2ccccc2)C(=O)N[C@@H](Cc2ccc(O)cc2)C(=O)N(C)CC(=O)N[C@@H](Cc2c[nH]c3ccccc23)C(=O)N[C@@H](Cc2ccc(O)cc2)C(=O)N[C@@H](CC(C)C)C(=O)N[C@H](C(=O)NCC(N)=O)CSCC(=O)N[C@@H](Cc2ccccc2)C(=O)N(C)[C@@H](Cc2ccccc2)C(=O)N1C [Example 3156] (HELM PEPTIDE1{[O=C(C[*:3])[*:2]].F.[meF].[CCCC[C@@H](C(=O)[*:2])N(C)[*:1]].[Sar].D.S.[meF].Y.[Sar].W.Y.L.C.G.[am]}$PEPTIDE1,PEPTIDE1,1:R3-14:R3$$$V2.0) | – | – | – | 439 nM | 1870 nM
CCCC[C@H]1C(=O)N(C)CC(=O)N[C@@H](CC(=O)O)C(=O)N[C@@H](CC(C)C)C(=O)N(C)[C@@H](Cc2ccccc2)C(=O)N[C@@H](Cc2ccc(O)cc2)C(=O)N(C)CC(=O)N[C@@H](Cc2c[nH]c3ccccc23)C(=O)N[C@@H](Cc2ccc(O)cc2)C(=O)N[C@@H](CC(C)C)C(=O)N[C@H](C(=O)NCC(N)=O)CSCC(=O)N[C@@H](Cc2ccccc2)C(=O)N(C)[C@@H](Cc2ccccc2)C(=O)N1C [Example 3529] (HELM PEPTIDE1{[O=C(C[*:3])[*:2]].F.[meF].[CCCC[C@@H](C(=O)[*:2])N(C)[*:1]].[Sar].D.L.[meF].Y.[Sar].W.Y.L.C.G.[am]}$PEPTIDE1,PEPTIDE1,1:R3-14:R3$$$V2.0) | > 30.5 nM | 4.78 to 72.9 nM | – | – | –
CCCC[C@H]1C(=O)N(C)[C@@H](CCCC)C(=O)N[C@@H](CC(C)(C)C)C(=O)N[C@H](C(=O)NCC(N)=O)CSCC(=O)N[C@@H](Cc2ccc(O)cc2)C(=O)N(C)[C@@H](C)C(=O)N[C@@H](CC(N)=O)C(=O)N2CCC[C@H]2C(=O)N[C@@H](Cc2c[nH]cn2)C(=O)N[C@@H](CCC(N)=O)C(=O)N2C[C@H](O)C[C@H]2C(=O)N[C@@H](Cc2c[nH]c3ccccc23)C(=O)N[C@@H](CO)C(=O)N[C@@H](Cc2c[nH]c3ccccc23)C(=O)N1C [Example 5076] ({CH2CO}-Y[NMeA]NPHQ[Hyp]WSW[NMeNle][NMeNle][tBuAla]CG-NH2; thioether N-14) | 6.76 to 30.3 nM | 4.78 to 72.9 nM | – | – | –
